Source: US6852673B2, “Herbicidal pyridine compounds” (BASF Aktiengesellschaft, priority 1998, dated 2005)

Legend:
Assay type in all cases: in vivo
[1] = test system: Cassia obtusifolia (CASOB); experiment: Pre-emergence herbicidal evaluation, sicklepod
Description: (§1) The pre-emergence herbicidal activity of the compounds of the present invention is exemplified by the following test in which the seeds of a variety of monocotyledonous and dicotyledonous plants are seperately mixed with potting soil and planted on top of approximately one inch of soil in separate pots. After planting, the pots are sprayed with the selected aqueous acetone solution containing test compound in sufficient quantity to provide the equivalent of about 0.0125 to 0.4 kg per hectare of test compound per pot. The treated pots are then placed on greenhouse benches, watered and cared for in accordance with conventional greenhouse procedures. From 2 to 4 weeks after treatment, the tests are terminated and each pot is examined and rated according to the rating system set forth below.

Lamium purpureum (LAMPU) = experiment: Post-emergence herbicidal evaluation, purple deadnettle; details: rated 2 to 4 weeks after treatment
Procedure: (§2) [table] [table] […] These acetone solutions are diluted with water and the resulting formulations applied at dosage levels equivalent of about 0.03 to 0.4 kg per hectare of test compound per pot. After spraying the plants are placed on greenhouse benches and are cared for in the usual manner, commensurate with conventional greenhouse practices. From 2 to 4 weeks after treatment, the seedling plants are examined and rated according to the rating system provided above. A rating 0 indicates growth as untreated control, a rating 9 indicates death.

Zea mays (ZEAMX) = experiment: Pre-emergence herbicidal evaluation, maize
Description: as §1

[2] = test system: Digitaria sanguinalis (DIGSA); experiment: Post-emergence herbicidal evaluation, large crabgrass; details: rated 2 to 4 weeks after treatment
Procedure: as §2

Glycine max (GLXMA) = experiment: Pre-emergence herbicidal evaluation, soyabeans
Description: as §1

Solanum nigrum (SOLNI) [3] = experiment: Post-emergence herbicidal evaluation, black nightshade; details: rated 2 to 4 weeks after treatment
Procedure: as §2

Solanum nigrum (SOLNI) [4] = experiment: Pre-emergence herbicidal evaluation, black nightshade
Description: as §1

Stellaria media (STEME) = experiment: Post-emergence herbicidal evaluation, chickweed; details: rated 2 to 4 weeks after treatment
Procedure: as §2

[5] = test system: Cassia obtusifolia (CASOB); experiment: Post-emergence herbicidal evaluation, sicklepod; details: rated 2 to 4 weeks after treatment
Procedure: as §2

[6] = test system: Digitaria sanguinalis (DIGSA); experiment: Pre-emergence herbicidal evaluation, large crabgrass
Description: as §1

| Structure (SMILES) | LAMPU rating (Lamium purpureum (LAMPU); dose 0.03 kg/ha) | LAMPU rating (Lamium purpureum (LAMPU); dose 0.4 kg/ha) | ZEAMX rating (Zea mays (ZEAMX); dose 0.013 kg/ha) | ZEAMX rating (Zea mays (ZEAMX); dose 0.025 kg/ha) | ZEAMX rating (Zea mays (ZEAMX); dose 0.4 kg/ha) | DIGSA rating ([2]; dose 0.03 kg/ha) | DIGSA rating ([2]; dose 0.1 kg/ha) | DIGSA rating ([2]; dose 0.4 kg/ha) | GLXMA rating (Glycine max (GLXMA); dose 0.013 kg/ha) | GLXMA rating (Glycine max (GLXMA); dose 0.025 kg/ha) | GLXMA rating (Glycine max (GLXMA); dose 0.4 kg/ha) | SOLNI rating (Solanum nigrum (SOLNI) [3]; dose 0.03 kg/ha) | SOLNI rating (Solanum nigrum (SOLNI) [3]; dose 0.1 kg/ha) | SOLNI rating (Solanum nigrum (SOLNI) [3]; dose 0.4 kg/ha) | SOLNI rating (Solanum nigrum (SOLNI) [4]; dose 0.013 kg/ha) | SOLNI rating (Solanum nigrum (SOLNI) [4]; dose 0.025 kg/ha) | SOLNI rating (Solanum nigrum (SOLNI) [4]; dose 0.1 kg/ha) | SOLNI rating (Solanum nigrum (SOLNI) [4]; dose 0.4 kg/ha) | STEME rating (Stellaria media (STEME); dose 0.03 kg/ha) | STEME rating (Stellaria media (STEME); dose 0.1 kg/ha) | also measured |
| --- | --- | --- | --- | --- | --- | --- | --- | --- | --- | --- | --- | --- | --- | --- | --- | --- | --- | --- | --- | --- | --- |
| COc1cc(OCC(F)(F)C(F)F)nc(Oc2cc(C(F)(F)F)nn2C)c1 [Example 4, 2-(1-Methyl-3-trifluoromethylpyrazol-5-yloxy)-4-methoxy-6-(2,2,3,3-tetrafluoropropyloxy)pyridine] | 7 (7 - Good herbicidal effect) | 8 (8 - Approaching complete kill) | 1 (1 - Trace effect) | 1 (1 - Trace effect) | 5 (5 - Definite injury) | 5 (5 - Definite injury) | 7 (7 - Good herbicidal effect) | 8 (8 - Approaching complete kill) | 1 (1 - Trace effect) | 4 (4 - Injury) | 8 (8 - Approaching complete kill) | 4 (4 - Injury) | 5 (5 - Definite injury) | 5 (5 - Definite injury) | 6 (6 - Herbicidal effect) | 8 (8 - Approaching complete kill) | 8 (8 - Approaching complete kill) | 8 (8 - Approaching complete kill) | 6 (6 - Herbicidal effect) | 6 (6 - Herbicidal effect) | CASOB rating ([1]; dose 0.013 kg/ha): 3 (3 - Moderate effect); CASOB rating ([1]; dose 0.025 kg/ha): 4 (4 - Injury); CASOB rating ([1]; dose 0.1 kg/ha): 7 (7 - Good herbicidal effect); CASOB rating ([1]; dose 0.4 kg/ha): 9 (9 - Complete kill); ZEAMX rating (Zea mays (ZEAMX); dose 0.1 kg/ha): 3 (3 - Moderate effect); GLXMA rating (Glycine max (GLXMA); dose 0.1 kg/ha): 6 (6 - Herbicidal effect); STEME rating (Stellaria media (STEME); dose 0.4 kg/ha): 8 (8 - Approaching complete kill) |
| Cc1cc(OC/C=C/C(F)(F)F)nc(Oc2cc(C(F)(F)F)nn2C)c1 [Example 1, (E)-2-(1-Methyl-3-trifluoromethylpyrazol-5-yloxy)-4-methyl-6-(4,4,4-trifluorobut-2-enyloxy)pyridine] | 8 (8 - Approaching complete kill) | 8 (8 - Approaching complete kill) | 1 (1 - Trace effect) | 2 (2 - Slight effect) | 5 (5 - Definite injury) | 7 (7 - Good herbicidal effect) | 8 (8 - Approaching complete kill) | 8 (8 - Approaching complete kill) | 1 (1 - Trace effect) | 1 (1 - Trace effect) | 5 (5 - Definite injury) | 5 (5 - Definite injury) | 5 (5 - Definite injury) | 5 (5 - Definite injury) | 4 (4 - Injury) | 8 (8 - Approaching complete kill) | 9 (9 - Complete kill) | 9 (9 - Complete kill) | 5 (5 - Definite injury) | 5 (5 - Definite injury) | CASOB rating ([1]; dose 0.013 kg/ha): 0 (0 - No effect); CASOB rating ([1]; dose 0.025 kg/ha): 9 (9 - Complete kill); CASOB rating ([1]; dose 0.1 kg/ha): 9 (9 - Complete kill); CASOB rating ([1]; dose 0.4 kg/ha): 9 (9 - Complete kill); CASOB rating ([5]; dose 0.03 kg/ha): 5 (5 - Definite injury); CASOB rating ([5]; dose 0.1 kg/ha): 5 (5 - Definite injury); CASOB rating ([5]; dose 0.4 kg/ha): 5 (5 - Definite injury); LAMPU rating (Lamium purpureum (LAMPU); dose 0.1 kg/ha): 8 (8 - Approaching complete kill); GLXMA rating (Glycine max (GLXMA); dose 0.1 kg/ha): 4 (4 - Injury); STEME rating (Stellaria media (STEME); dose 0.4 kg/ha): 6 (6 - Herbicidal effect) |
| Cc1cc(OCC=C(Cl)Cl)nc(Oc2cc(C(F)(F)F)nn2C)c1 [Example 12] | 8 (8 - Approaching complete kill) | 8 (8 - Approaching complete kill) | 0 (0 - No effect) | 2 (2 - Slight effect) | 5 (5 - Definite injury) | 8 (8 - Approaching complete kill) | 9 (9 - Complete kill) | 9 (9 - Complete kill) | 1 (1 - Trace effect) | 2 (2 - Slight effect) | 4 (4 - Injury) | 8 (8 - Approaching complete kill) | 8 (8 - Approaching complete kill) | 8 (8 - Approaching complete kill) | 5 (5 - Definite injury) | 8 (8 - Approaching complete kill) | 8 (8 - Approaching complete kill) | 8 (8 - Approaching complete kill) | 8 (8 - Approaching complete kill) | 8 (8 - Approaching complete kill) | CASOB rating ([5]; dose 0.03 kg/ha): 8 (8 - Approaching complete kill); CASOB rating ([5]; dose 0.1 kg/ha): 8 (8 - Approaching complete kill); CASOB rating ([5]; dose 0.4 kg/ha): 8 (8 - Approaching complete kill); LAMPU rating (Lamium purpureum (LAMPU); dose 0.1 kg/ha): 8 (8 - Approaching complete kill); ZEAMX rating (Zea mays (ZEAMX); dose 0.1 kg/ha): 3 (3 - Moderate effect); GLXMA rating (Glycine max (GLXMA); dose 0.1 kg/ha): 3 (3 - Moderate effect); DIGSA rating ([6]; dose 0.013 kg/ha): 9 (9 - Complete kill); DIGSA rating ([6]; dose 0.025 kg/ha): 9 (9 - Complete kill); DIGSA rating ([6]; dose 0.1 kg/ha): 9 (9 - Complete kill); DIGSA rating ([6]; dose 0.4 kg/ha): 9 (9 - Complete kill); STEME rating (Stellaria media (STEME); dose 0.4 kg/ha): 8 (8 - Approaching complete kill) |
| Cc1cc(OC=CCC(F)(F)F)nc(Oc2cc(C(F)(F)F)nn2C)c1 [Example 2, 2-(1-Methyl-3-trifluoromethylpyrazol-5-yloxy)-4-methyl-6-(4,4,4-trifluorobut-1-enyloxy)pyridine] | 8 (8 - Approaching complete kill) | 8 (8 - Approaching complete kill) | 0 (0 - No effect) | 1 (1 - Trace effect) | 4 (4 - Injury) | 7 (7 - Good herbicidal effect) | 9 (9 - Complete kill) | 9 (9 - Complete kill) | 0 (0 - No effect) | 1 (1 - Trace effect) | 4 (4 - Injury) | 7 (7 - Good herbicidal effect) | 8 (8 - Approaching complete kill) | 8 (8 - Approaching complete kill) | 0 (0 - No effect) | 1 (1 - Trace effect) | 8 (8 - Approaching complete kill) | 9 (9 - Complete kill) | 4 (4 - Injury) | 6 (6 - Herbicidal effect) | CASOB rating ([1]; dose 0.013 kg/ha): 0 (0 - No effect); CASOB rating ([1]; dose 0.025 kg/ha): 1 (1 - Trace effect); CASOB rating ([1]; dose 0.1 kg/ha): 9 (9 - Complete kill); CASOB rating ([1]; dose 0.4 kg/ha): 9 (9 - Complete kill); LAMPU rating (Lamium purpureum (LAMPU); dose 0.1 kg/ha): 8 (8 - Approaching complete kill); ZEAMX rating (Zea mays (ZEAMX); dose 0.1 kg/ha): 2 (2 - Slight effect); STEME rating (Stellaria media (STEME); dose 0.4 kg/ha): 8 (8 - Approaching complete kill) |
| CC(Cl)=CCOc1cc(C)cc(Oc2cc(C(F)(F)F)nn2C)n1 [Example 11] | 0 (0 - No effect) | 8 (8 - Approaching complete kill) | 1 (1 - Trace effect) | 2 (2 - Slight effect) | 5 (5 - Definite injury) | 9 (9 - Complete kill) | 9 (9 - Complete kill) | 9 (9 - Complete kill) | 0 (0 - No effect) | 1 (1 - Trace effect) | 4 (4 - Injury) | 3 (3 - Moderate effect) | 6 (6 - Herbicidal effect) | 8 (8 - Approaching complete kill) | 5 (5 - Definite injury) | 7 (7 - Good herbicidal effect) | 8 (8 - Approaching complete kill) | 9 (9 - Complete kill) | 4 (4 - Injury) | 6 (6 - Herbicidal effect) | LAMPU rating (Lamium purpureum (LAMPU); dose 0.1 kg/ha): 3 (3 - Moderate effect); ZEAMX rating (Zea mays (ZEAMX); dose 0.1 kg/ha): 3 (3 - Moderate effect); selectivity in soybeans (Glycine max (GLXMA)): quite selective; GLXMA rating (Glycine max (GLXMA); dose 0.1 kg/ha): 2 (2 - Slight effect); DIGSA rating ([6]; dose 0.013 kg/ha): 8 (8 - Approaching complete kill); DIGSA rating ([6]; dose 0.025 kg/ha): 8 (8 - Approaching complete kill); DIGSA rating ([6]; dose 0.1 kg/ha): 9 (9 - Complete kill); DIGSA rating ([6]; dose 0.4 kg/ha): 9 (9 - Complete kill); STEME rating (Stellaria media (STEME); dose 0.4 kg/ha): 8 (8 - Approaching complete kill) |
